Test results published in patent US9615579B2, “Compositions for powdery mildew control and methods of their use” (Valent U.S.A., Corporation, priority 2015, dated 2017).

Key:
Apples, jonagold variety = assay: Example 2: fruit finish quality of treated apple trees; format: in vivo; conditions: 80 days after 7th treatment
Method: (§1) 30, 2015. […] Pest incidence, pest severity, and fruit finish were measured.

apple powdery mildew [1] = assay: Example 2: foliar applications on jonagold apple trees, incidence and severity of apple powdery mildew; format: in vivo, Podosphaera leucotricha
Method: Applicant conducted the following study to determine the effect of a 3-(difluoromethyl)-1-methyl-N-[(3R)-1,1,3-trimethyl-2,3-dihydroinden-4-yl]pyrazole-4-carboxamide foliar applications on fungal infections in apple trees.
as §1
SYL-COAT™ was used as the source of polyether-polymethylsiloxane-copolymer and polyether silicone containing surfactant (available from Wilbur-Ellis Company).

apple powdery mildew [2] = assay: Example 1: foliar applications on jonagold apple trees, control of apple powdery mildew; format: in vivo, Podosphaera leucotricha; conditions: jonagold trees about 9 years old; five foliar sprays at 14 day intervals, about 300 L/ha; incidence of disease observed about a week after last treatment; rates (own compound 50 g active/ha, silicone surfactant 584 mL/ha, Regulaid surfactant 0.125% v/v, methylated seed oil 0.06% v/v, kresoxim-methyl 224, penthiopyrad 234 g active/ha)
Source text: Applicant conducted the following study to determine the effect of 3-(difluoromethyl)-1-methyl-N-[(3R)-1,1,3-trimethyl-2,3-dihydroinden-4-yl]pyrazole-4-carboxamide foliar applications on fungal infections in apple trees.
A 40% suspension concentrate formulation was used as the source of 3-(difluoromethyl)-1-methyl-N-[(3R)-1,1,3-trimethyl-2,3-dihydroinden-4-yl]pyrazole-4-carboxamide (available from Sumitomo Chemical Company, Tokyo, Japan).
Regulaid® is a nonionic surfactant and was used as the source of the 2-butoxyethanol, poloxalene, and monopropylene glycol surfactant (Regulaid is available from and a registered trademark of KALO, Inc). Regulaid® contains about 90.6% of 2-butoxyethanol, poloxalene, and monopropylene glycol.
Sovran® was used as the source of kresoxim-methyl (available from and a registered trademark of BASF Corporation).
Fontelis® was used as the source of penthiopyrad (available from and a registered trademark of E.I. du Pont).
Slygard® 309 was used as the source of a mixture of 3-(3-hydroxypropyl)-heptamethyltrisiloxane-ethoxylated acetate, polyethylene glycol monallyl acetate and polyethylene glycol diacetate silicone containing surfactant (available from and a registered trademark of Wilbur-Ellis Company). Slygard® 309 contains 100% of the mixture of surfactants.

[3] = 8 days after 4th treatment, rates (own compound 50 g/ha, penthiopyrad 234 g/ha, kresoxim-methyl 224 g/ha, silicone surfactant 8 fl oz/a, Regulaid surfactant 0.125% v/v)

SMILES	Fruit Finish Quality (0 lowest-10 highest) (Apples, jonagold variety) [b]	Incidence of Apple Powdery Mildew (%) (apple powdery mildew [1]; 2 days after 5th treatment)	Severity of Apple Powdery Mildew (%) (apple powdery mildew [1]; 2 days after 5th treatment)	Incidence of Apple Powdery Mildew (%) (apple powdery mildew [1]; 3 days after 6th treatment)	Severity of Apple Powdery Mildew (%) (apple powdery mildew [1]; 3 days after 6th treatment)	Incidence of Apple Powdery Mildew (%) (apple powdery mildew [1]; [3])	Severity of Apple Powdery Mildew (%) (apple powdery mildew [1]; 9 days after 7th treatment)	% Control (apple powdery mildew [2]) [%]
C[C@@H]1CC(C)(C)c2cccc(NC(=O)c3cn(C)nc3C(F)F)c21 [3-(Difluoromethyl)-1-methyl-N-[(3R)-1,1,3-trimethyl-2,3-dihydroinden-4-yl]pyrazole-4-carboxamide]	7.5000	11.5303 bc %	1.6836 bc %	20.4938 c %	4.4196 c %	13.0000 b %	11.5331 bc %	67
CO/N=C(/C(=O)OC)c1ccccc1COc1ccccc1C [Kresoxim-methyl, kresoxim-methyl]	8.2500	3.4874 cd %	0.8465 cd %	12.0332 cd %	2.9013 c %	8.7500 bc %	9.0294 bc %	63
CC(C)CC(C)c1sccc1NC(=O)c1cn(C)nc1C(F)(F)F (stereo not drawn) [Penthiopyrad, penthiopyrad]	8.0000	1.4675 cd %	0.6379 cd %	2.5965 ef %	0.7932 d %	7.5000 bc %	7.8439 c %	71
